Literature values in patent US20100227874A1, “REDUCTION OF OXIDATIVE STRESS DAMAGE DURING OR AFTER EXERCISE” (NESTEC S.A., priority 2007, published 2010).

Test system: rat adipocytes
Conditions: insulin-potentiating epididymal fat-cell assay with rat adipocytes

| SMILES | Insulin activity in vitro |
| --- | --- |
| O=C(O[C@@H]1Cc2c(O)cc(O)cc2O[C@@H]1c1ccc(O)c(O)c1)c1cc(O)c(O)c(O)c1 [epicatechin gallate] | enhance insulin activity |
| O=C(O[C@@H]1Cc2c(O)cc(O)cc2O[C@@H]1c1cc(O)c(O)c(O)c1)c1cc(O)c(O)c(O)c1 [epigallocatechin gallate] | enhance insulin activity |
